Test results taken from patent US20250268166A1, “ALS-INHIBITOR HERBICIDE TOLERANT BETA VULGARIS HYBRIDS WITH INCREASED HETEROSIS” (BAYER AKTIENGESELLSCHAFT, priority 2021, published 2025).

Tested on: B. vulgaris plants comprising the BvALS_W569L allele
Assay: Sensitivity of B. vulgaris plants to ALS inhibitor herbicide (BvALS_W569L allele vs wild type allele)
Type: in vivo, Beta vulgaris
Text: Beta vulgaris plants comprising the BvALS_W569L allele are less sensitive to an ALS inhibitor, more preferably it is at least 100 times less sensitive, more preferably, 500 times, even more preferably 1000 times and most preferably […] 2000 times than Beta vulgaris plants comprising the wild-type allele. Less sensitive when used herein may, vice versa, be seen as “more tolerable” or “more resistant”. Similarly, “more tolerable” or “more resistant” may, vice versa, be seen as “less sensitive”. For example, B. vulgaris plants comprising the BvALS_W569L allele are at least 2000 times less sensitive to the ALS inhibitor herbicide foramsulfuron (a member of the ALS inhibitor subclass “sulfonylurea herbicides”) compared to B. vulgaris plants comprising a BvALS wild type allele.

COc1cc(OC)nc(NC(=O)NS(=O)(=O)c2cc(NC=O)ccc2C(=O)N(C)C)n1 [foramsulfuron]
times less sensitive to the ALS inhibitor herbicide compared to B. vulgaris plants comprising a BvALS wild type allele: at least 2000 times
